Key:
Format in all cases: in vivo
Settings in all cases: wettable powder applied 3 days after transplanting, judged after 25 days
[1] = system: transplanted paddy-field rice; assay: Test Example 1: crop injury against transplanted paddy-field rice
Method in brief: (§1)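 Herbicidal effect and rice injury were graded on a six-step growth-inhibition scale (0: 0–10% to 5: 91–100%) at 25 days after pot application of water-diluted wettable powder, given 3 days post-transplant under flooded greenhouse conditions.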

[2] = system: barnyardgrass (Echinochloa oryzicola Vasing.); assay: Test Example 1: herbicidal effects, paddy-field pot test
Method in brief: as §1

[3] = system: annual broad-leaved weeds (Lindernia spp., Rotala indica); assay: as above
Method in brief: as §1

Scirpus joncoides = assay: as above
Method in brief: as §1

Cyperus serotinus = assay: as above
Method in brief: as §1

Row | Structure (SMILES) | Crop injury against transplanted rice ([1]; chemical dosage 10 g/a) | Herbicidal effects Barnyard grass ([2]; chemical dosage 10 g/a) | Herbicidal effects Broad leaf ([3]; chemical dosage 10 g/a) | Herbicidal effects Scirpus joncoides (Scirpus joncoides; chemical dosage 10 g/a) | Herbicidal effects Cyperus serotinus (Cyperus serotinus; chemical dosage 10 g/a) | Crop injury against transplanted rice ([1]; chemical dosage 20 g/a) | Herbicidal effects Barnyard grass ([2]; chemical dosage 20 g/a) | Herbicidal effects Broad leaf ([3]; chemical dosage 20 g/a) | Herbicidal effects Scirpus joncoides (Scirpus joncoides; chemical dosage 20 g/a) | Herbicidal effects Cyperus serotinus (Cyperus serotinus; chemical dosage 20 g/a) | Crop injury against transplanted rice ([1]; chemical dosage 12.5 g/a) | Crop injury against transplanted rice ([1]; chemical dosage 25 g/a) | Herbicidal effects Barnyard grass ([2]; chemical dosage 12.5 g/a) | Herbicidal effects Barnyard grass ([2]; chemical dosage 25 g/a) | Herbicidal effects Broad leaf ([3]; chemical dosage 12.5 g/a) | Herbicidal effects Broad leaf ([3]; chemical dosage 25 g/a) | Herbicidal effects Scirpus joncoides (Scirpus joncoides; chemical dosage 12.5 g/a) | Herbicidal effects Scirpus joncoides (Scirpus joncoides; chemical dosage 25 g/a) | Herbicidal effects Cyperus serotinus (Cyperus serotinus; chemical dosage 12.5 g/a) | Herbicidal effects Cyperus serotinus (Cyperus serotinus; chemical dosage 25 g/a)
1 | Cc1ccc2c(c1Oc1nnc(Cl)cc1O)CCC2 [Example 305] | 0 (Growth inhibition rate; 0 to 10%) | 1 (Growth inhibition rate; 11 to 30%) | 5 (Growth inhibition rate; 91 to 100%) | 5 (Growth inhibition rate; 91 to 100%) | 5 (Growth inhibition rate; 91 to 100%) |  |  |  |  |  |  |  |  |  |  |  |  |  |  | 
2 | CCc1ccc2c(c1Oc1nnc(Cl)cc1O)CCC2 [Example 306] | 0 (Growth inhibition rate; 0 to 10%) | 1 (Growth inhibition rate; 11 to 30%) | 5 (Growth inhibition rate; 91 to 100%) | 5 (Growth inhibition rate; 91 to 100%) | 5 (Growth inhibition rate; 91 to 100%) |  |  |  |  |  |  |  |  |  |  |  |  |  |  | 
3 | Oc1cc(Cl)nnc1Oc1c(C2CC2)ccc2c1CCC2 [Example 307] | 0 (Growth inhibition rate; 0 to 10%) | 3 (Growth inhibition rate; 51 to 70%) | 5 (Growth inhibition rate; 91 to 100%) | 5 (Growth inhibition rate; 91 to 100%) | 5 (Growth inhibition rate; 91 to 100%) | 0 (Growth inhibition rate; 0 to 10%) | 4 (Growth inhibition rate; 71 to 90%) | 5 (Growth inhibition rate; 91 to 100%) | 5 (Growth inhibition rate; 91 to 100%) | 5 (Growth inhibition rate; 91 to 100%) |  |  |  |  |  |  |  |  |  | 
4 | Cc1ccc2c(c1Oc1nnc(Cl)cc1O)OCC2 [Example 308] | 0 (Growth inhibition rate; 0 to 10%) | 2 (Growth inhibition rate; 31 to 50%) | 5 (Growth inhibition rate; 91 to 100%) | 4 (Growth inhibition rate; 71 to 90%) | 5 (Growth inhibition rate; 91 to 100%) | 0 (Growth inhibition rate; 0 to 10%) | 4 (Growth inhibition rate; 71 to 90%) | 5 (Growth inhibition rate; 91 to 100%) | 5 (Growth inhibition rate; 91 to 100%) | 5 (Growth inhibition rate; 91 to 100%) |  |  |  |  |  |  |  |  |  | 
5 | Oc1cc(Cl)nnc1Oc1c(C2CC2)ccc2ccoc12 [Example 311] | 0 (Growth inhibition rate; 0 to 10%) | 1 (Growth inhibition rate; 11 to 30%) | 5 (Growth inhibition rate; 91 to 100%) | 4 (Growth inhibition rate; 71 to 90%) | 4 (Growth inhibition rate; 71 to 90%) | 0 (Growth inhibition rate; 0 to 10%) | 3 (Growth inhibition rate; 51 to 70%) | 5 (Growth inhibition rate; 91 to 100%) | 5 (Growth inhibition rate; 91 to 100%) | 5 (Growth inhibition rate; 91 to 100%) |  |  |  |  |  |  |  |  |  | 
6 | Cc1cc(C)c(Oc2nnc(Cl)cc2O)c(C)c1 [Example 317] |  |  |  |  |  |  |  |  |  |  | 0 (Growth inhibition rate; 0 to 10%) | 1 (Growth inhibition rate; 11 to 30%) | 0 (Growth inhibition rate; 0 to 10%) | 0 (Growth inhibition rate; 0 to 10%) | 4 (Growth inhibition rate; 71 to 90%) | 5 (Growth inhibition rate; 91 to 100%) | 2 (Growth inhibition rate; 31 to 50%) | 3 (Growth inhibition rate; 51 to 70%) | 5 (Growth inhibition rate; 91 to 100%) | 5 (Growth inhibition rate; 91 to 100%)
7 | Cc1cc(C)c(Oc2nnc(Cl)cc2O)c(C2CC2)c1 [Example 318] | 0 (Growth inhibition rate; 0 to 10%) | 0 (Growth inhibition rate; 0 to 10%) | 5 (Growth inhibition rate; 91 to 100%) | 5 (Growth inhibition rate; 91 to 100%) | 5 (Growth inhibition rate; 91 to 100%) | 0 (Growth inhibition rate; 0 to 10%) | 1 (Growth inhibition rate; 11 to 30%) | 5 (Growth inhibition rate; 91 to 100%) | 5 (Growth inhibition rate; 91 to 100%) | 5 (Growth inhibition rate; 91 to 100%) |  |  |  |  |  |  |  |  |  | 
8 | Cc1cc(C)c(Br)c(Oc2nnc(Cl)cc2O)c1C [Example 319] | 0 (Growth inhibition rate; 0 to 10%) | 2 (Growth inhibition rate; 31 to 50%) | 5 (Growth inhibition rate; 91 to 100%) | 5 (Growth inhibition rate; 91 to 100%) | 5 (Growth inhibition rate; 91 to 100%) | 0 (Growth inhibition rate; 0 to 10%) | 3 (Growth inhibition rate; 51 to 70%) | 5 (Growth inhibition rate; 91 to 100%) | 5 (Growth inhibition rate; 91 to 100%) | 5 (Growth inhibition rate; 91 to 100%) |  |  |  |  |  |  |  |  |  | 
9 | Cc1cc(C)c(C)c(Oc2nnc(Cl)cc2O)c1C [Example 320] |  |  |  |  |  |  |  |  |  |  | 0 (Growth inhibition rate; 0 to 10%) | 0 (Growth inhibition rate; 0 to 10%) | 1 (Growth inhibition rate; 11 to 30%) | 2 (Growth inhibition rate; 31 to 50%) | 5 (Growth inhibition rate; 91 to 100%) | 5 (Growth inhibition rate; 91 to 100%) | 5 (Growth inhibition rate; 91 to 100%) | 5 (Growth inhibition rate; 91 to 100%) | 5 (Growth inhibition rate; 91 to 100%) | 5 (Growth inhibition rate; 91 to 100%)
10 | CC(=O)Oc1cc(Cl)nnc1Oc1ccccc1C1CC1 [Example 323] | 0 (Growth inhibition rate; 0 to 10%) | 3 (Growth inhibition rate; 51 to 70%) | 5 (Growth inhibition rate; 91 to 100%) | 5 (Growth inhibition rate; 91 to 100%) | 5 (Growth inhibition rate; 91 to 100%) | 0 (Growth inhibition rate; 0 to 10%) | 4 (Growth inhibition rate; 71 to 90%) | 5 (Growth inhibition rate; 91 to 100%) | 5 (Growth inhibition rate; 91 to 100%) | 5 (Growth inhibition rate; 91 to 100%) |  |  |  |  |  |  |  |  |  | 
11 | O=C(Oc1cc(Cl)nnc1Oc1ccccc1C1CC1)C1CC1 [Example 327] | 0 (Growth inhibition rate; 0 to 10%) | 4 (Growth inhibition rate; 71 to 90%) | 5 (Growth inhibition rate; 91 to 100%) | 5 (Growth inhibition rate; 91 to 100%) | 5 (Growth inhibition rate; 91 to 100%) | 0 (Growth inhibition rate; 0 to 10%) | 4 (Growth inhibition rate; 71 to 90%) | 5 (Growth inhibition rate; 91 to 100%) | 5 (Growth inhibition rate; 91 to 100%) | 5 (Growth inhibition rate; 91 to 100%) |  |  |  |  |  |  |  |  |  | 
12 | Cc1ccccc1Oc1nnc(Cl)cc1OC(=O)c1ccccc1 [Example 328] | 0 (Growth inhibition rate; 0 to 10%) | 3 (Growth inhibition rate; 51 to 70%) | 3 (Growth inhibition rate; 51 to 70%) | 3 (Growth inhibition rate; 51 to 70%) | 5 (Growth inhibition rate; 91 to 100%) | 0 (Growth inhibition rate; 0 to 10%) | 4 (Growth inhibition rate; 71 to 90%) | 5 (Growth inhibition rate; 91 to 100%) | 5 (Growth inhibition rate; 91 to 100%) | 5 (Growth inhibition rate; 91 to 100%) |  |  |  |  |  |  |  |  |  | 
13 | O=C(Oc1cc(Cl)nnc1Oc1ccccc1C1CC1)c1ccccc1 [Example 329] | 0 (Growth inhibition rate; 0 to 10%) | 2 (Growth inhibition rate; 31 to 50%) | 5 (Growth inhibition rate; 91 to 100%) | 5 (Growth inhibition rate; 91 to 100%) | 5 (Growth inhibition rate; 91 to 100%) | 0 (Growth inhibition rate; 0 to 10%) | 4 (Growth inhibition rate; 71 to 90%) | 5 (Growth inhibition rate; 91 to 100%) | 5 (Growth inhibition rate; 91 to 100%) | 5 (Growth inhibition rate; 91 to 100%) |  |  |  |  |  |  |  |  |  | 
